Test results taken from ChEMBL document CHEMBL4673352, “Discovery of AZD4573, a Potent and Selective Inhibitor of CDK9 That Enables Short Duration of Target Engagement for the Treatment of Hematological Malignancies” (J Med Chem, 2020).
≈ marks a conversion by molar mass, not a printed value.

Tests used:
[1] = Half-life in Beagle dog at 0.23 umol/kg, iv administered over 0.25 hrs formulated as solution in 10% DMSO/90% water; format: ADME, organism-based, Canis lupus familiaris; details: in vivo, dose 0.23 µmol/kg
NOMO-1 = assay: Antitumor activity against human NOMO1 cells xenografted in CB17 SCID mouse assessed as tumor growth inhibition at 5 mg/kg, ip BID administered at 2 hrs dosing interval with 2 days on and 5 days off dosing schedule measured 12 days post initial dose; format: functional; details: NOMO-1, ip, 288 h, time 12 day, read-out: TGI
MV4-11 [2] = assay: Antitumor activity against human MV4-11 cells xenografted in CB17 SCID mouse assessed as tumor growth inhibition at 5 mg/kg, ip BID administered at 2 hrs dose interval with 2 days on and 5 days off dosing schedule measured 33 days post initial dose; format: functional; details: MV4-11, ip, 792 h, time 33 day, read-out: TGI
[3] = biological target: T1, Mitogen-activated protein kinase 8 (Homo sapiens, UniProt P45983); assay: Inhibition of JNK1 (unknown origin) in presence of 5 mM ATP
T1 sequence (P45983 whole entry, canonical isoform): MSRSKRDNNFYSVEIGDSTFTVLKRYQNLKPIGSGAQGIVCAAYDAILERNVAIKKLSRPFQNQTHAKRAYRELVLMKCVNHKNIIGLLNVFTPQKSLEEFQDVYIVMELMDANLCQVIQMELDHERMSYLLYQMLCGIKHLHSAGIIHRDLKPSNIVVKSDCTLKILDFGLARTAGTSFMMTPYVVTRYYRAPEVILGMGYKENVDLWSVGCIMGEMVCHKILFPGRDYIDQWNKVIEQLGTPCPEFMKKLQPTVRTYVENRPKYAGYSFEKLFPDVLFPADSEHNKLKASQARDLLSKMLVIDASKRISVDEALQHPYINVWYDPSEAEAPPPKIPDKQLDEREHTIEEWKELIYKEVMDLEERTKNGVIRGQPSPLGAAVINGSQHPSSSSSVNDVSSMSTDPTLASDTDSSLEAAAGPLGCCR

[4] = biological target: Casein kinase I isoform gamma-1 (Homo sapiens, UniProt Q9HCP0); assay: Inhibition of CK1gamma1 (unknown origin) in presence of 5 mM ATP
Sequence of Casein kinase I isoform gamma-1 (Q9HCP0 whole entry, canonical isoform): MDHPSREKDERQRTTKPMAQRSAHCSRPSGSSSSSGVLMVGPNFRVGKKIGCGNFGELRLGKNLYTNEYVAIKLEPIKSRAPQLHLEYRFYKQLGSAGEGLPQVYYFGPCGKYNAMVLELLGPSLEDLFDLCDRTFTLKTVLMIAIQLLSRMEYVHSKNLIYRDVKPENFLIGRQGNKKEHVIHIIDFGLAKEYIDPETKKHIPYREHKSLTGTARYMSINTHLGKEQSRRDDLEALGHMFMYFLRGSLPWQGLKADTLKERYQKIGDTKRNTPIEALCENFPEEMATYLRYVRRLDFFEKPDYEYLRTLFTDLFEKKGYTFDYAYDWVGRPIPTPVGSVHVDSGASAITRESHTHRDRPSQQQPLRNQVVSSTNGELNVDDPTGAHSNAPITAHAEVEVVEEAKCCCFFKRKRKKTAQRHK

[5] = Half-life in mouse at 2.3 umol/kg, iv formulated as solution; format: ADME, organism-based; details: in vivo, dose 2.3 µmol/kg
[6] = Clearance in cynomolgus monkey plasma at 0.46 umol/kg, iv administered over 0.25 hrs formulated as solution in DMA/PEG400/Tween80; format: ADME, organism-based, Macaca fascicularis; details: dose 0.46 µmol/kg
[7] = Drug metabolism in human hepatocytes assessed as (1S,3R)-3-acetamido-N-(5-chloro-4-(6-hydroxy-5,5-dimethyl-5,6-dihydro-4H-pyrrolo[1,2-b]pyrazol-3-yl)pyridin-2-yl)cyclohexanecarboxamide metabolite formation; format: ADME, cell-based, Hepatocyte
[8] = biological target: Mitogen-activated protein kinase kinase kinase kinase 4 (Homo sapiens) (UniProt O95819); assay: Inhibition of recombinant human GST-tagged MAP4K4 catalytic domain expressed in baculovirus expression system at 1 uM by Lanthascreen assay relative to control; details: time 60.0 min
Sequence of Mitogen-activated protein kinase kinase kinase kinase 4 (Homo sapiens) (O95819 2-1239 limits assumed): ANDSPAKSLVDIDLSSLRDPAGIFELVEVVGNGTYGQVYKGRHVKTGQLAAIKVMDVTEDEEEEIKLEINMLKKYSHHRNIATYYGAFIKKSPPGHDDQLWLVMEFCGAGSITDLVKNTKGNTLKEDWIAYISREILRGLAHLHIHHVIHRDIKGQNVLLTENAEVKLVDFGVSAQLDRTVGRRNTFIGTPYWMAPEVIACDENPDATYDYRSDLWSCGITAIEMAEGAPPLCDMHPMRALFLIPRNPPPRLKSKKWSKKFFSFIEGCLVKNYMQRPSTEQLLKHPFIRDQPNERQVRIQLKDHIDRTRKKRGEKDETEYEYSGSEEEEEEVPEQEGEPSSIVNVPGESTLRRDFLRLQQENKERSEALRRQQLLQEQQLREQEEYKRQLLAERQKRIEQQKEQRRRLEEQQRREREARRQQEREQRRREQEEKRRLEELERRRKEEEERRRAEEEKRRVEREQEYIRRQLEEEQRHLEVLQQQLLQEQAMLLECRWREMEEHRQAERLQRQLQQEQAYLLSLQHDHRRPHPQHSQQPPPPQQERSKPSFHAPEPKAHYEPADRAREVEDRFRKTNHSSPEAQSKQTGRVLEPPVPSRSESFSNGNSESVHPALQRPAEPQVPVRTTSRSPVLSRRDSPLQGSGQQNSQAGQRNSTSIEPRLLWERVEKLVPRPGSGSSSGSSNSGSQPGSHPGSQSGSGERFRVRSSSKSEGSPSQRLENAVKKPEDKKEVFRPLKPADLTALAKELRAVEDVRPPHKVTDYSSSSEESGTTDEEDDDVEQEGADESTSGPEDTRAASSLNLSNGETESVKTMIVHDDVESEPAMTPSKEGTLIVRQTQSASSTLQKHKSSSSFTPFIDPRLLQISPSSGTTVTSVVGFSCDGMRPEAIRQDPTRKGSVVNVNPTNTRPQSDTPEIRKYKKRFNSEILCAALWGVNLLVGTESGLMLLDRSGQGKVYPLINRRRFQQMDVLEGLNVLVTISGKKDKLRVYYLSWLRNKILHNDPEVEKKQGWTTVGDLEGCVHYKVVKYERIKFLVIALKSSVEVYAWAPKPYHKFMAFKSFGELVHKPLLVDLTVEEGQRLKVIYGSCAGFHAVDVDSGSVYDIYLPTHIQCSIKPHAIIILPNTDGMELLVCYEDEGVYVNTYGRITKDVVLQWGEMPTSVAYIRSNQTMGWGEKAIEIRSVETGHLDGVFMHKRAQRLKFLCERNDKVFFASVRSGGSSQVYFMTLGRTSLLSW

[9] = biological target: Glycogen synthase kinase-3 alpha (Homo sapiens, UniProt P49840); assay: Inhibition of kinase tracer 236 binding to N-terminal GST-tagged human full length GSK3alpha expressed in baculovirus expression system by Lanthascreen Eu kinase binding assay; details: dose 0.1 µM, time 60.0 min
Sequence of Glycogen synthase kinase-3 alpha (P49840 2-483 limits assumed): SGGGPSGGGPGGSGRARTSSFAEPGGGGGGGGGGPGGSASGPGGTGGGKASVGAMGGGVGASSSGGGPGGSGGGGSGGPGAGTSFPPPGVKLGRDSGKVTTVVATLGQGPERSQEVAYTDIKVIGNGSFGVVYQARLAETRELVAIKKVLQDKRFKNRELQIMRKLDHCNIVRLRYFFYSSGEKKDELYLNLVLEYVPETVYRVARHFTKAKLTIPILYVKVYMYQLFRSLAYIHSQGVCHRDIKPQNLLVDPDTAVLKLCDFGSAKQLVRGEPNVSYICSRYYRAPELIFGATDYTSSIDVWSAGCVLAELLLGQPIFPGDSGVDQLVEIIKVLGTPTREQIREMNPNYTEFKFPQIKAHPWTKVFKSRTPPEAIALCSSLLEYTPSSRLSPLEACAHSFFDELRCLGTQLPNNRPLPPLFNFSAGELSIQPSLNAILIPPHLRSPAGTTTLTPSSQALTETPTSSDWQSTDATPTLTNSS

[10] = Clearance in Beagle dog plasma at 0.23 umol/kg, iv administered over 0.25 hrs formulated as solution in 10% DMSO/90% water; format: ADME, organism-based, Canis lupus familiaris; details: dose 0.23 µmol/kg
[11] = Volume of distribution at steady state in cynomolgus monkey at 0.46 umol/kg, iv administered over 0.25 hrs formulated as solution in DMA/PEG400/Tween80; format: ADME, organism-based, Macaca fascicularis; details: in vivo, dose 0.46 µmol/kg, read-out: Vdss
MV4-11 [12] = assay: Antitumor activity against human MV4-11 cells xenografted in CB17 SCID mouse assessed as tumor regression at 15 mg/kg, ip BID administered at 2 hrs dosing interval with 2 days on and 5 days off dosing schedule observed for 125 days; format: functional; details: time 125 day
[13] = biological target: T1, Mitogen-activated protein kinase 8; assay: Inhibition of human recombinant full-length JNK1 using ATF2 as substrate at1 uM incubated for 40 mins in presence of [gamma32P]-ATP by scintillation counting method relative to control; details: dose 1.0 µM
Homo sapiens [14] = species: Homo sapiens; assay: (§1) Selectivity ratio of IC50 for CDK6 (unknown origin) in presence of 5 mM ATP to IC50 for Inhibition of recombinant full length human N-terminal GST-fused CDK9 (1 to 372 residues)/His-tagged CyclinT1 (1 to 726 residues) expressed in baculovirus infected insect cells
[15] = biological target: T2, Cyclin-dependent kinase 9 (Homo sapiens, UniProt P50750); assay: Inhibition of CDK9 in human MCF7 cells assessed as reduction in RNA Polymerase 2 CTD phosphorylation at Ser2 residues measured after 6 hrs by immunofluorescence assay; format: cell-based
T2 sequence (P50750 whole entry): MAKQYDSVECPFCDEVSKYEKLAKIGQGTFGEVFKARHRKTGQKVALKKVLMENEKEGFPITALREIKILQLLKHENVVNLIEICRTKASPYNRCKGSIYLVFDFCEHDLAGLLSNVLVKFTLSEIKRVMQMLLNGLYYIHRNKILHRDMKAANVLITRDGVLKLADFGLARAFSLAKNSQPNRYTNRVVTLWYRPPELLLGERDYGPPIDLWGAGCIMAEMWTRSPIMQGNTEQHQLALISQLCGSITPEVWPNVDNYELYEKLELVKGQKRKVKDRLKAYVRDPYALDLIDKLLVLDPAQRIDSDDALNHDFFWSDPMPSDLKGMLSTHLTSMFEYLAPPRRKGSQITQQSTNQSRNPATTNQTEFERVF

Homo sapiens [16] = species: Homo sapiens; assay: as §1, with “recombinant full length human His-tagged CDK1/CyclinB expressed” for “CDK6 (unknown origin)”, “baculovirus infected insect cells” for “presence of 5 mM ATP”
Homo sapiens [17] = species: Homo sapiens; assay: Selectivity ratio of IC50 for recombinant full length human CDK2/CyclinE expressed in insect cells to IC50 for Inhibition of recombinant full length human N-terminal GST-fused CDK9 (1 to 372 residues)/His-tagged CyclinT1 (1 to 726 residues) expressed in baculovirus infected insect cells
[18] = Drug metabolism in human liver microsomes assessed as (1S,3R)-3-acetamido-N-(5-fluoro-4-(6-hydroxy-5,5-dimethyl-5,6-dihydro-4H-pyrrolo[1,2-b]pyrazol-3-yl)pyridin-2-yl)cyclohexanecarboxamide formation at 10 uM measured after 1 hr in presence of NADPH by LC-UV-MS analysis; format: ADME, Microsome
Homo sapiens [19] = species: Homo sapiens; assay: Selectivity ratio of IC50 for CDK4 (unknown origin) in presence of 5 mM ATP to IC50 for Inhibition of recombinant full length human N-terminal GST-fused CDK9 (1 to 372 residues)/His-tagged CyclinT1 (1 to 726 residues) expressed in baculovirus infected insect cells
[20] = Drug metabolism in human liver microsomes assessed as 3-(4-(2-((1S,3R)-3-acetamidocyclohexanecarboxamido)-5-fluoropyridin-4-yl)-1H-pyrazol-5-yl)-2,2-dimethylpropanoic acid formation at 10 uM measured after 1 hr in presence of NADPH by LC-UV-MS analysis; format: ADME, Microsome
Homo sapiens [21] = species: Homo sapiens; assay: Selectivity ratio of IC50 for recombinant full length human CDK7/cyclinH1/MAT1 expressed in insect cells to IC50 for Inhibition of recombinant full length human N-terminal GST-fused CDK9 (1 to 372 residues)/His-tagged CyclinT1 (1 to 726 residues) expressed in baculovirus infected insect cells
[22] = biological target: T2, Cyclin-dependent kinase 9
[23] = biological target: T2, Cyclin-dependent kinase 9; assay: Inhibition of CDK9 in human MV4-11 cells assessed as induction of caspase-3/7 activation measured after 6 hrs followed by Caspase-glo reagent based assay; format: cell-based
[24] = Drug metabolism in human hepatocytes assessed as 4-(4-(2-((1S,3R)-3-acetamidocyclohexanecarboxamido)-5-chloropyridin-4-yl)-1H-pyrazol-5-yl)butanoic acid metabolite formation; format: ADME, cell-based, Hepatocyte
[25] = Drug metabolism in human hepatocytes assessed as (1S,3R)-3-acetamido-N-(5-chloro-4-(7-hydroxy-4,5,6,7-tetrahydropyrazolo[1,5-a]pyridin-3-yl)pyridin2-yl)cyclohexanecarboxamide metabolite formation; format: ADME, cell-based, Hepatocyte
[26] = Drug metabolism in human liver microsome assessed as (1S,3R)-3-acetamido-N-(5-chloro-4-(5-(4-hydroxybutyl)-1H-pyrazol-4-yl)pyridin-2-yl)cyclohexanecarboxamide formation at 10 uM measured after 1 hr in presence of NADPH by LC-UV-MS analysis; format: ADME; details: microsomes
[27] = Solubility of compound in pH 7.4 PBS buffer using crystalline form of sample; format: physicochemical
[28] = Drug metabolism in human hepatocytes assessed as (1S,3R)-3-acetamido-N-(5-chloro-4-(5-(4-hydroxybutyl)-1H-pyrazol-4-yl)pyridin-2-yl)cyclohexanecarboxamide metabolite formation; format: ADME, cell-based, Hepatocyte

Work on `CC(=O)N[C@@H]1CCC[C@H](C(=O)Nc2cc(-c3cnn4c3CC(C)(C)C4)c(Cl)cn2)C1` [ZEMIRCICLIB] yielded a half-life [1] of 39.6 min, an inhibition in vivo at 5 mg/kg (NOMO-1) of 65% and an inhibition in vivo at 5 mg/kg (MV4-11 [2]) of 97%. It also gave an IC50 [3] of 2800 nM, an IC50 [4] of 5520 nM and a half-life [5] of 10.8 min. For the same compound, the clearance [6] was 19 mL/min/kg, the Drug metabolism [7] was “Metabolite_Detected” and the inhibition [8] was 85%. The inhibition [9] was 96%, the clearance [10] was 16 mL/min/kg and the Vd [11] was 1.3 L/kg. For the same compound, the Activity (MV4-11 [12]) was 100% and the inhibition [13] was 90%.
For `CC(=O)N[C@@H]1CCC[C@H](C(=O)Nc2cc(-c3cnn4c3CC(C)(C)C4)c(F)cn2)C1`, the Ratio IC50 (Homo sapiens [14]) was 16, the IC50 [15] was 25 nM and the Ratio IC50 (Homo sapiens [16]) was 16. For the same compound, the Ratio IC50 (Homo sapiens [17]) was 16, the Drug metabolism [18] was “Metabolite_Detected” and the Ratio IC50 (Homo sapiens [19]) was 16. The Drug metabolism [20] was “Metabolite_Detected”, the Ratio IC50 (Homo sapiens [21]) was 16 and the IC50 [22] was greater than 3000 nM. For the same compound, the EC50 [23] was 29 nM.
With `CC(=O)N[C@@H]1CCC[C@H](C(=O)Nc2cc(-c3cnn4c3CCCC4)c(Cl)cn2)C1` the Drug metabolism [24] was “Metabolite_Detected”, the Drug metabolism [25] was “Metabolite_Detected” and the Drug metabolism [26] was “Metabolite_Detected”. For the same compound, the solubility thermodynamic [27] was 94 µg/mL (≈ 226 µM) and the Drug metabolism [28] was “Metabolite_Detected”.
